# Reference: article PMC10327518 (Journal of Enzyme Inhibition and Medicinal Chemistry, 2023)
# Several values for one entry are separate records, joined by “and”; a condition that tells them apart may be missing. Equal entries are not always repeated. Where two headings read alike, the source gives them in different places.
# What was measured:
# [1] = target: T1, eqBuChE (equine serum BuChE) (Equus caballus, UniProt P81908); experiment: biochemical; settings: for inhibition at 25 µM: read-out: Inhibition percent rate eqBuChE; for SI: SI = IC50 (AChE)/IC50 (BuChE)
# T1 construct: purchased Sigma-Aldrich Co; host or cells: equine serum (natural source)
# T1 sequence (P81908 whole entry): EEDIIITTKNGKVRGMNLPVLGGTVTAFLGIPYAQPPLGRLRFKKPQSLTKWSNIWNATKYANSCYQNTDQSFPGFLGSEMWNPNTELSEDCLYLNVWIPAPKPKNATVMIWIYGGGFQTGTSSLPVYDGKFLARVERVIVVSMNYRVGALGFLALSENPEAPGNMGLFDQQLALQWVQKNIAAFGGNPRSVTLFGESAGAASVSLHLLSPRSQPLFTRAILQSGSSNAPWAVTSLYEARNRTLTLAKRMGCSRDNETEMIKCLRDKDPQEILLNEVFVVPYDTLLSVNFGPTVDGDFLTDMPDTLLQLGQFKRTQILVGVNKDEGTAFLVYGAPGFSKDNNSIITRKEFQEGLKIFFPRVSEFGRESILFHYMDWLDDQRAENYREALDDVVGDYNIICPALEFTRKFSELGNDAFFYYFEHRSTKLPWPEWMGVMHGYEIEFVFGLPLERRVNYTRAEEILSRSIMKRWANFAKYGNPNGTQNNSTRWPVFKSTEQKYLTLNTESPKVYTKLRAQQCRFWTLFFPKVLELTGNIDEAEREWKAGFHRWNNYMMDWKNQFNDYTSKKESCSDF
# Procedure: (§1) 2.1 Inhibition experiments of AChE and BuChE. The modified Ellman method was
# (§2) performed to test the AChE and BChE inhibitory ability of the compounds, using
# (§3) eeAChE and eqBChE (Sigma-Aldrich Co.). […]
# [2] = target: T2, eeAChE (electric eel AChE) (Electrophorus electricus, UniProt O42275); experiment: biochemical; settings: for inhibition at 25 µM: read-out: Inhibition percent rate eeAChE
# T2 construct: purchased Sigma-Aldrich Co; host or cells: electric eel (natural source)
# T2 sequence (O42275 24-633): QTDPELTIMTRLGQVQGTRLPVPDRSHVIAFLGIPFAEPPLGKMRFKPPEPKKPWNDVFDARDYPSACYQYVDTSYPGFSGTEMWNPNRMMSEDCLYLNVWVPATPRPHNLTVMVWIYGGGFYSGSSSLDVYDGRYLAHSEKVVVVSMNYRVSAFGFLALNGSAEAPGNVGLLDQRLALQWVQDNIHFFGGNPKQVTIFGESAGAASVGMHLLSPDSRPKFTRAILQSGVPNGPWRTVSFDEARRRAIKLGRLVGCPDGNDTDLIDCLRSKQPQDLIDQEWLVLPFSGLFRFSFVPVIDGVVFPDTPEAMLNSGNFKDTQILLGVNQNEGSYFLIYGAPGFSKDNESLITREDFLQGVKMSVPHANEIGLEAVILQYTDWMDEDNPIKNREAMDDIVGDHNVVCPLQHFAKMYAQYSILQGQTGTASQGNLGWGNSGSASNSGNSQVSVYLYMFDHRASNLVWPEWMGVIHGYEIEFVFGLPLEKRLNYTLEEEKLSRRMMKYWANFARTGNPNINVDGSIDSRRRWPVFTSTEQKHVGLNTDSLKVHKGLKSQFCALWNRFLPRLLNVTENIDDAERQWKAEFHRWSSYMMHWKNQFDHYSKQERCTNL
# Procedure: as §1, §2, §3
# [3] = test system: IL-6 production in LPS-stimulated BV-2 cells; experiment: IL-6 production in LPS-stimulated BV-2 cells (ELISA); format: cell-based; settings: LPS 1 μg/mL
# [4] = test system: scopolamine-induced cognitive dysfunction in mice; experiment: Step-down passive avoidance task, scopolamine-induced cognitive dysfunction; format: in vivo
# Procedure: The in vivo effects of 5a were determined through the step-down passive avoidance task. […]. page 9: […]
# Assay method. The step-down passive avoidance task was employed to investigate
# the effects of 5a on scopolamine-induced memory impairment.21,22 Sixty mice were
# random divide into six groups. […]
# [5] = Rat liver microsomes stability; format: in vitro ADME; settings: n = 3, read-out: t1/2 in rat liver microsomes
# [6] = test system: IL-1β production in LPS-stimulated BV-2 cells; experiment: IL-1β production in LPS-stimulated BV-2 cells (ELISA); format: cell-based
# [7] = test system: Aβ25-35-induced PC12 cell injury; experiment: cells; settings: Rattus norvegicus, PC-12, read-out: PC12 cells viability
# [8] = target: T3, eqBuChE (Equus caballus, UniProt P81908); format: biochemical, equine
# T3 construct: purchased Sigma-Aldrich Co; host or cells: equine serum (natural source)
# T3 sequence (P81908 whole entry): as the sequence (P81908 whole entry) above
# Description: Further, the recovery capability of BuChE inhibitory effect after dilution was monitored by time.
# Figure 2.
# [9] = Plasma stability; format: in vitro ADME; settings: rat, n = 3, read-out: t1/2 in blood plasma (converted)
# [10] = test system: BV-2 cells; experiment: Cytotoxicity on BV-2 cells, CCK-8 assay; format: cell-based; settings: at 10 μM
# Procedure: 5a was chosen to evaluate the anti-inflammation property through testing the production of IL-1β, IL-6, and NO in LPS-induced BV-2 cells[25]^,[26]. First of all, the cytotoxicity of 5a was determined through the CCK-8 assay.
# 2.1 Inhibition experiments of AChE and BuChE. The modified Ellman method was performed to test the AChE and BChE inhibitory ability of the compounds, using eeAChE and eqBChE (Sigma-Aldrich Co.). The detailed procedure referenced our […]
# 2.2 Anti-inflammatory property. BV-2 cells were cultured in DMEM containing 10% fetal bovine serum, 100 U/mL penicillin, 100 U/mL streptomycin, and 1% nonessential amino acid at 37℃ with 5% CO2.
# BV-2 cells in logarithmic growth stage were digested and centrifuged, and then resuspended in DMEM medium containing 1% penicillin-streptomycin and 10% fetal bovine serum. The cells was adjusted to 1.2 × 10^4 cells/well, and then seeded evenly in 96-well cell culture plates. The cells were incubated for 36 h at 37℃ with 5% CO2. […]
# BV-2 cells (2 × 10^5 cells/well) were seeded in a 24-well cell culture plates. […] The content of NO in cell culture supernatant was determined by Griess method, and the levels of cytokines IL-6 and IL-1β in cell culture supernatant were determined by IL-6 ELISA kit and IL-1β ELISA kit, respectively.
# [11] = test system: NO release in LPS-stimulated BV-2 cells; experiment: NO release in LPS-stimulated BV-2 cells (Griess method); format: cell-based; settings: 1, 3, and 9 μM; LPS 1 μg/mL (model 31.9 μM)
# [12] = test system: Kunming mice; experiment: Acute toxicity (safety profile) in mice; settings: 500 mg/kg, intragastric administration
# [13] = test system: PC12 cells; experiment: Cytotoxicity on PC12 cells, CCK-8 assay; format: cell-based; settings: at 30 μM
# [14] = Stability in artificial gastrointestinal fluids; format: in vitro ADME; settings: 37 °C
# Procedure: Based on the above data, 5a was chosen to evaluate the stabilities by artificial gastrointestinal solution, blood plasma, and rat liver microsomes.
# Cell viability(%) = (Asample-Ablank)/(Acontrol-Ablank) ×100%. Asample, Ablank and Acontrol
# medium, or vehicle, respectively.
# method described in China Pharmacopoeia (version 2015). The artificial gastric fluid
# described above without pepsin and trypsin. Compound 5a (1 mg/mL, n = 3) was
# Supernatant was collected by
# were processed by GraphPad Prism 8.0 software.
# Solution B (25 mL) contained
# [15] = target: cholinesterase; parameters: method as in PMID 11429429; settings: read-out: IC50 anticholinesterase activity; cited from earlier work
# [16] = mean ± SD, read-out: IC50 ± SD eqBuChE
# [17] = mean ± SD, read-out: IC50 ± SD eeAChE
smiles,measurement,setting,value
"O=C(O)c1ccc(O)cc1O [Compound 1a, 2,4-dihydroxybenzoic acid]",inhibition at 25 µM,[1],25.8 ± 0.93%
same,inhibition at 25 µM,[2],16.3 ± 0.17%
"O=C(O)c1cc(O)ccc1O [Compound 1b, 2,5-dihydroxybenzoic acid]",inhibition at 25 µM,[1],18.2 ± 0.67%
same,inhibition at 25 µM,[2],20.6 ± 1.2%
"CN(C)C(=O)Oc1ccc(C(=O)N2CCC(Cc3ccccc3)CC2)c(OC(=O)N(C)C)c1 [Compound 5a, 4-(4-Benzylpiperidine-1-carbonyl)-1,3-phenylene bis(dimethylcarbamate)]",Level of IL-6,[3]; 5a 3 μM,505.3 pg/mL
same,Level of IL-6,[3]; 5a 9 μM,971.1 pg/mL
same,Step-down latency,"[4]; 5a 1.23 mg/kg, scopolamine 2.0 mg/kg",140.1 s
same,Step-down latency,"[4]; 5a 2.45 mg/kg, scopolamine 2.0 mg/kg",77.8 s
same,Step-down latency,"[4]; 5a […], scopolamine 2.0 mg/kg",105.2 s
same,IC50,[1],0.53 ± 0.01 µM
same,SI,[1],14.7
same,IC50,[2],7.8 ± 0.36 µM
same,half-life at 10 μg/mL,[5],0.32 h
same,Level of IL-1β,"[6]; 5a 1 μM, LPS 1 μg/mL (model 302.7 pg/mL)",67.2 pg/mL
same,Level of IL-1β,"[6]; 5a 3 μM, LPS 1 μg/mL",90.9 pg/mL
same,Level of IL-1β,"[6]; 5a 9 μM, LPS 1 μg/mL",163.4 pg/mL
same,viability at 1 µM,[7],61.7%
same,viability at 3 µM,[7],68.6%
same,viability at 9 µM,[7],83.3%
same,BuChE activity recovered,"[8]; 0.1 × IC50, at 120 min, Figure 2(B)",63.9%
same,BChE activity (% control),"[8]; 1*IC50, Figure 2(A)",48.6 % control
same,eqBuChE activity restored,"[8]; after dilution to 0.1 × IC50, text on Figure 2(A)",no significant recovery
same,BChE activity (% control),"[8]; diluted to 0.1*IC50, Figure 2(A)",46.7 % control
same,Type of inhibition (reversibility),[8]; from recovery after dilution,pseudo-irreversible
same,half-life at 10 μg/mL,[9],3.25 h
same,Cytotoxicity on BV-2 cells,[10],did not produce significant cytotoxicity
same,Release volume of NO,[11],remarkably declined
same,Abnormal behaviour (safety profile),[12],did not present abnormal behaviour
same,Cytotoxicity on PC12 cells,[13],no obvious cytotoxicity
same,Residual amount,[14]; after 8 h incubation in artificial gastric juice,95.6%
same,Residual amount,[14]; after 8 h incubation in artificial intestinal juice,110.6%
same,Residual amount,[14]; after 8 h incubation in blank gastric juice,99.5%
same,Residual amount,[14]; after 8 h incubation in blank intestinal juice,97.5%
"CCN(C)C(=O)Oc1ccc(C(=O)N2CCC(Cc3ccccc3)CC2)c(OC(=O)N(C)CC)c1 [Compound 5b, 4-(4-Benzylpiperidine-1-carbonyl)-1,3-phenylene bis(ethyl(methyl)carbamate)]",IC50,[1],2.6 ± 1.8 µM
same,SI,[1],2.4
same,IC50,[2],6.3 ± 0.41 µM
"CC(C)N(C(=O)Oc1ccc(C(=O)N2CCC(Cc3ccccc3)CC2)c(OC(=O)N(C(C)C)C(C)C)c1)C(C)C [Compound 5c, 4-(4-Benzylpiperidine-1-carbonyl)-1,3-phenylene bis(diisopropylcarbamate)]",SI,[1],0.66
same,IC50,[1]; [16],10.8 ± 0.56 µM
same,IC50,[2]; [17],7.1 ± 0.23 µM
"O=C(Oc1ccc(C(=O)N2CCC(Cc3ccccc3)CC2)c(OC(=O)N2CCCC2)c1)N1CCCC1 [Compound 5d, 4-(4-Benzylpiperidine-1-carbonyl)-1,3-phenylene bis(pyrrolidine-1-carboxylate)]",SI,[1],2.6
same,IC50,[1]; [16],8.7 ± 0.93 µM
same,IC50,[2]; [17],22.3 ± 1.8 µM
"O=C(Oc1ccc(C(=O)N2CCC(Cc3ccccc3)CC2)c(OC(=O)N2CCOCC2)c1)N1CCOCC1 [Compound 5e, 4-(4-Benzylpiperidine-1-carbonyl)-1,3-phenylene bis(morpholine-4-carboxylate)]",SI,[1],1.4
same,IC50,[1]; [16],13.1 ± 0.72 µM
same,IC50,[2]; [17],18.3 ± 0.87 µM
"CN(C)C(=O)Oc1ccc(OC(=O)N(C)C)c(C(=O)N2CCC(Cc3ccccc3)CC2)c1 [Compound 5f, 2-(4-Benzylpiperidine-1-carbonyl)-1,4-phenylene bis(dimethylcarbamate)]",IC50,[1],16.3 ± 0.86 µM
same,SI,[1],0.32
same,IC50,[2],5.2 ± 0.35 µM
"CCN(C)C(=O)Oc1ccc(OC(=O)N(C)CC)c(C(=O)N2CCC(Cc3ccccc3)CC2)c1 [Compound 5g, 2-(4-Benzylpiperidine-1-carbonyl)-1,4-phenylene bis(ethyl(methyl)carbamate)]",IC50,[1],13.5 ± 0.52 µM
same,SI,[1],0.36
same,IC50,[2],4.9 ± 0.68 µM
"CC(C)N(C(=O)Oc1ccc(OC(=O)N(C(C)C)C(C)C)c(C(=O)N2CCC(Cc3ccccc3)CC2)c1)C(C)C [Compound 5h, 2-(4-Benzylpiperidine-1-carbonyl)-1,4-phenylene bis(diisopropylcarbamate)]",SI,[1],0.49
same,IC50,[1]; [16],16.7 ± 1.2 µM
same,IC50,[2]; [17],8.2 ± 0.67 µM
"COc1cc2c(cc1OC)C(=O)C(CC1CCN(Cc3ccccc3)CC1)C2 (stereo not drawn) [Donepezil, donepezil, reference compound]",Step-down latency,"[4]; donepezil 2.0 mg/kg, scopolamine 2.0 mg/kg (model 42.1 s)",144.3 s
"CCN(C)C(=O)Oc1cccc([C@H](C)N(C)C)c1 [Rivastigmine, rivastigmine, reference compound]",BChE activity (% control),[8],53.2 % control and 49.8 % control
same,BuChE activity recovered,[8],68.7%
same,Type of inhibition (reversibility),[8],pseudo-irreversible
same,eqBuChE activity restored,[8],no significant recovery
"O=C(O)c1ccccc1O [SA, Salicylic acid]",IC50,[15],346 µM
